What was measured:
[1] = system: U46619-induced bronchoconstriction; assay: Bronchodilatation in vivo: inhibition of U46619-induced bronchoconstriction in anaesthetised guinea-pigs; set-up: species or system guinea-pig (Dunkin Hartley); conditions: Cavia porcellus, iv; i.v. bolus; U46619 infused i.v. at 2.5 nmol/min; range over the listed Examples; read-out: BD50 (dose of compound required to reduce the U46619-induced bronchoconstriction by 50%)
Protocol: Male guinea-pigs of the Dunkin Hartley strain (500-600 g) were anaesthetised with Sagatal (pentobarbital sodium) (60 mg/kg). Airway resistance was measured using a modification of the classical Konzett-Rossler technique (J. Pharm. Methods, 13, 309-315, 1985). U46619 (9,11-methanoepoxy-PGH2) was infused i.v. at a rate of 2.5 nmol/min, this produced a steady state of bronchoconstriction (approximately 120% increase from basal airway resistance). The compound under test was administered by i.v. bolus injection, and the subsequent peak inhibition of bronchoconstriction recorded.
The dose of compound required to reduce the U46619-induced bronchoconstriction by 50% is given as the BD50. The compounds of Examples 2, 3, 6, 11, 14 and 15 had BD50 values in the range 0.58-7.24 μmol/kg.

[2] = system: ovalbumen antigen challenge bronchoconstrictor response; assay: Anti-allergic activity: inhibition of ovalbumen-induced bronchoconstrictor response in sensitised guinea-pigs; type: in vivo, guinea-pig (Duncan Hartley); conditions: ovalbumen 1 mg/kg i.v.
Protocol: Male Duncan Hartley guinea-pigs (250-300 g) were sensitised to ovalbumen by i.p. injection of 2 ml of 50mg.ml^-1 i.p. and 0.2 ml s.c. Three weeks later they were anaesthetised with 60 mg.kg^-1 sodium pentobarbitone. The trachea was cannulated and the animal respired at a rate of 40 breaths per minute and at an initial tracheal inflation pressure of 16 mmHg. Tracheal inflation pressure was measured by a transducer connected to a side arm of the respiration circuit. The carotid artery was cannulated for the measurement of blood pressure and the signal was used to trigger an instantaneous rate meter. A jugular vein was cannulated for the administration of drug and allergen. After surgery the animals were allowed to stabilise and the drug was administered i.v. as a bolus. Following this, ovalbumen 1 mg.kg^-1 was injected i.v. as the antigen challenge either 2, 15 or 30 minutes following drug treatment and the peak bronchoconstrictor response recorded. For the control group ovalbumen only was given. One ovalbumen challenge per guinea-pig was used and n=6 for each time point. The percentage increase in tracheal inflation pressure was calculated. The following results indicating an anti-allergic activity were obtained.

[3] = molecular target: calmodulin insensitive cyclic GMP phosphodiesterase (Homo sapiens, UniProt O76074); assay: Inhibition of calmodulin insensitive cyclic GMP phosphodiesterase; type: biochemical; conditions: procedure of European Patent Application No. 293063; range over the listed Examples; read-out: IC50 (concentration of inhibitor required for 50% inhibition of enzyme activity)
Protocol: The activity of the compounds of the present invention as inhibitors of a calmodulin insensitive cyclic GMP phosphodiesterase was measured using the procedure described in European Patent Application No. 293063. […] The compounds of the present invention have the advantage that the are selective in not inhibiting cyclic AMP phosphodiesterase (type III)

Row | IC50 [3] | Structure (SMILES) | ED50 [1] | also measured
1 | – | O=c1[nH]c(-c2ccccc2OCC2CC2)nc2nc[nH]c12 [Example 2, 2-(2-Cyclopropylmethoxyphenyl)purin-6-one] | 0.58 to 7.24 µmol/kg | –
2 | – | O=c1[nH]c2nc(-c3ccccc3OCC3CC3)[nH]c(=O)c2[nH]1 [Example 3, 2-(2-Cyclopropylmethoxyphenyl)purin-6,8-dione] | 0.58 to 7.24 µmol/kg | % Inhibition of Control Bronchoconstrictor Response 30 min after drug administration ([2]; dose 18.4 μmol/kg i.v.): 24%
3 | 0.31 to 4.8 µM | CCCOc1ccccc1-c1nc2nc(-c3ccccc3)[nH]c2c(=O)[nH]1 [Example 6, 2-(2-Propoxyphenyl)-8-phenylpurin-6-one] | 0.58 to 7.24 µmol/kg | –
4 | 0.31 to 4.8 µM | CCCOc1ccccc1-c1nc2nc(S)[nH]c2c(=O)[nH]1 [Example 8, 2-(2-Propoxyphenyl)-8-mercaptopurin-6-one] | – | –
5 | 0.31 to 4.8 µM | CCCOc1ccccc1-c1nc2nc(SC)[nH]c2c(=O)[nH]1 [Example 9, 2-(2-Propoxyphenyl)-8-methylthiopurin-6-one] | – | –
6 | – | CCCOc1ccc([N+](=O)[O-])cc1-c1nc2nc[nH]c2c(=O)[nH]1 [Example 11, 2-(2-Propoxy-5-nitrophenyl)purin-6-one] | 0.58 to 7.24 µmol/kg | –
7 | – | CCCOc1ccc(OC)cc1-c1nc2nc[nH]c2c(=O)[nH]1 [Example 14, 2-(2-Propoxy-5-methoxyphenyl)purin-6-one] | 0.58 to 7.24 µmol/kg | –
8 | – | CCCOc1ccc(Cl)cc1-c1nc2nc[nH]c2c(=O)[nH]1 [Example 15, 2-(2-Propoxy-5-chlorophenyl)purin-6-one] | 0.58 to 7.24 µmol/kg | % Inhibition of Control Bronchoconstrictor Response 30 min after drug administration ([2]; dose 16.6 μmol/kg i.v.): 30%
